Assay results from article PMC8894159, “Paltusotine, a novel oral once-daily nonpeptide SST2 receptor agonist, suppresses GH and IGF-1 in healthy volunteers” (Pituitary, 2022).

Tested on: GHRH-stimulated GH secretion
Assay: GHRH challenge: suppression of GHRH-stimulated GH secretion, single-dose cohorts
Assay type: in vivo, human
Method: To assess the ability of paltusotine to suppress GHRH-stimulated GH secretion, a GHRH challenge was performed in single-dose cohorts S1, S2, S3, S4, and S5 (oral solution) (Fig. 1). Recombinant human GHRH(1-44)-NH2 (somatorelin; Ferring Pharmaceuticals, Parsippany, NJ) 50 µg was administered intravenously 2 h after paltusotine (or placebo) on Day 1 and at approximately the same time on Day -1 (± 10 min). A blood sample for serum GH was collected at − 60 min, − 30 min, immediately before GHRH challenge, and at 15, 30, 45, 60, 90, and 120 min post-challenge. Serum GH was also assessed in the M1 cohort. Serum GH sample was collected on Day - 1, on Days 1 and 7 (pre-dose, 0.5, 1, 2, 3, 4, 6, 8, 10, 12 and 18 h post-dose), Days 2–6 (pre-dose and 12 h post-dose), and Days 8, 10 and 14 (at approximately the same time as dosing).
Serum was isolated, stored, and analyzed for IGF-1 and GH according to the instructions from the manufacturer (IGF-1 and human GH diagnostic assay, Siemens Immulite® 1000 systems).
The study endpoints were effects of paltusotine on GHRH-stimulated GH and IGF-1 (pharmacodynamics), pharmacokinetics (including formulation and food effects), safety, and tolerability. For the analysis of effects paltusotine on GHRH-stimulated GH and IGF-1, the pharmacodynamic population included all randomized participants in the 1.25 mg, 2.5 mg, 5 mg, 10 mg, and 20 mg (S1, S2, S3, S4A, and S5) single-dose cohorts who received any amount of study drug and had at least one post-baseline pharmacodynamic assessment. The percent change in serum GH area under the curve (AUC) from 0 to 2 h (AUC0-2) from baseline was compared using ANOVA between each dosing cohort and all participants who received placebo. The single-dose pharmacodynamic population included 39 participants from the S1, S2, S3, S4, and S5 cohorts (paltusotine n = 29; placebo n = 10). […] For multiple-dose cohorts, only participants who received all doses were included. A change in IGF-1 levels 12 h post last dose from baseline (average of 3–4 measurements) were compared by ANOVA between each dosing cohort and all participants who received placebo. The multiple-dose pharmacodynamic population included 31 participants from the M1, M2, M3, and M4 cohorts (paltusotine n = 21; placebo n = 10).

[1] = plasma concentration-response model, 1.25-20 mg single doses

Structure (SMILES): Cl.N#Cc1cccc(-c2ccc3ncc(-c4cc(F)cc(F)c4)c(N4CCC(N)CC4)c3c2)c1O [paltusotine, 3-[4-(4-Aminopiperidin-1-yl)-3-(3,5-difluorophenyl)quinolin-6-yl]-2-hydroxybenzonitrile hydrochloride]
- mean peak GH concentration after GHRH challenge (10 mg single dose, Day 1, GHRH alone on Day -1 gave 21 ng/mL): 1.7 ng/mL
- suppression of stimulated GH AUC0-2 h (10 mg single dose, placebo 15%): 91%
- EC50 (Homo sapiens, read-out: paltusotine concentration for 50% GH suppression (EC50), plasma concentration-response model, 1.25-20 mg single doses): ~7.9 ng/mL
- paltusotine concentration for 50% GH suppression (EC50) [1]: 7.9 ng/mL
- paltusotine concentration for 80% GH suppression (EC80) [1]: ~29 ng/mL
